IC50 data for 26 compounds are collected here from patent US6242494A, “Substituted β-amino acid inhibitors of methionine aminopeptidase-2” (Abbott Laboratories, priority 1999, dated 2001).

Counter-ions that a name gives are not always drawn.

For the first assay, the target named is T1, methionine aminopeptidase-2 (MetAP2) (Homo sapiens, UniProt P50579).
T1 construct: made in house; host or cells: insect cells, baculovirus system (secreted, purified from culture supernatant)
T1 sequence (P50579 whole entry): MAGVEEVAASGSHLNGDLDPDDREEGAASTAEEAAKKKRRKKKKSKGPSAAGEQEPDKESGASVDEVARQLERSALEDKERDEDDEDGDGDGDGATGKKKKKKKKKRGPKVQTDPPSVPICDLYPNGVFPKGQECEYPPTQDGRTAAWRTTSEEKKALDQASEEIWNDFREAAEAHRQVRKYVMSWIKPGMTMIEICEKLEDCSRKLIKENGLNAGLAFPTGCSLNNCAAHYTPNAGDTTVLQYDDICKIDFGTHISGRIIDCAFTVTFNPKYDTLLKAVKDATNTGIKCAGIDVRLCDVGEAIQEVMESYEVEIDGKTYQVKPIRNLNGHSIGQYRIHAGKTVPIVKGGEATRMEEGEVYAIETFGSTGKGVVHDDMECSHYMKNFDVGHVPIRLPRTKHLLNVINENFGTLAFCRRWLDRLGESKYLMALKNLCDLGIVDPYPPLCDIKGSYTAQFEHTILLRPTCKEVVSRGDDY
Briefly: Inhibition of MetAP2 enzyme activity (96-well, Met-Ala-Ser substrate, L-amino acid oxidase/peroxidase/ortho-dianisidine, 450 nm). The class given is biochemical. The note with it: IC50, recombinant MetAP2 4 μg/mL, pH 7.4, Met-Ala-Ser substrate, 20 minutes.
On to `CCSCC[C@@H](N)C(O)C(=O)N[C@@H](C)C(=O)O` (some centres unmarked) [Example 34, hydrochloride], for which the IC50 stood at 3.1 µM. With `N[C@H](CC1CCCCC1)C(O)C(=O)N[C@@H](CO)C(=O)OCc1cccc(OC(F)(F)F)c1` (stereo partly drawn) [Example 141, 3-(trifluoromethoxy)benzyl (2RS,3R,2'S)-2-((3-amino-4-cyclohexyl-2-hydroxybutanoyl)amino)-3-hydropropanoate trifluoroacetate], the half-maximal inhibitory concentration (IC50) worked out at 3.7 µM. In the case of `N[C@H](CC1CCCCC1)C(O)C(=O)Nc1ccc(Cl)c(Cl)c1` (mixture of isomers) [Example 153, (2RS,3R)-3-amino-4-cyclohexyl-N-(3,4-dichlorophenyl)-2-hydroxybutanamide], the IC50 was 0.37 µM. Take `COc1cc(CCNC(=O)C(O)[C@H](N)CC2CCCCC2)ccc1O` (some centres unmarked) [Example 59]: the IC50 worked out at 1.5 µM. Regarding `CC(CCc1ccccc1)NC(=O)C(O)[C@H](N)CC1CCCCC1` (mixture of isomers) [Example 209, (2RS,3R)-3-amino-4-cyclohexyl-2-hydroxy-N-(1-methyl-3-phenylpropyl)butanamide Hydrochloride], the IC50 amounted to 14 µM. Turning to `CCOC(=O)[C@H](CO)NC(=O)C(O)[C@H](N)CC1CCCCC1` (stereo partly drawn) [Example 46, (2RS,3R,1'S)-N-((2-hydroxy-1-ethoxycarbonylethyl)-3-amino-2-hydroxy-4-cyclohexyl)butanamide hydrochloride], the IC50 stood at 1.1 µM.

With `CC(C)(C)c1ccc(CNC(=O)C(O)[C@H](N)CC2CCCCC2)cc1` (stereo partly drawn) [Example 156, (2RS,3R)-3-amino-N-(4-tert-butyl)benzyl-4-cyclohexyl-2-hydroxybutanamide], the IC50 was determined as 3.9 µM. `C[C@H](NC(=O)C(O)[C@H](N)CC1CCCCC1)C(=O)Nc1ccc([N+](=O)[O-])cc1O` (stereo partly drawn) [Example 71, ((2RS,3R)-3-amino-2-hydroxy-4-cyclohexyl)butanoyl-L-alanyl-(4-nitro-2-hydroxyphen-1-yl)amide hydrochloride]: the IC50 came out at 12 µM.

In the case of `COc1ccc(C(C)(C)C)cc1NC(=O)C(O)[C@H](N)CC1CCCCC1` (mixture of isomers) [Example 182, (2RS,3R)-3-amino-N-(5-(tert-butyl)-2-methoxyphenyl)-4-cyclohexyl-2-hydroxybutanamide hydrochloride], the IC50 worked out at 8 µM. In the case of `COc1cc(CCNC(=O)[C@H](C)NC(=O)C(O)[C@H](N)CC2CCCCC2)ccc1O` (stereo partly drawn) [Example 66, ((2RS,3R)-3-amino-2-hydroxy-4-cyclohexyl)butanoyl-L-alanyl-(3-O-methoxydopamine)amide hydrochloride], the IC50 amounted to 10 µM. On to `C[C@H](NC(=O)C(O)[C@H](N)CC1CCCCC1)C(=O)Nc1cc(-c2ccccc2)[nH]n1` (stereo partly drawn) [Example 68, ((2RS,3R)-3-amino-2-hydroxy-4-cyclohexyl)butanoyl-L-alanyl-(5-phenyl-pyrazole-3)amide hydrochloride], for which the IC50 was 3.8 µM. Turning to `CCCCCC(C)NC(=O)C(O)[C@H](N)CC1CCCCC1` (mixture of isomers) [Example 212, (2RS,3R)-3-amino-4-cyclohexyl-2-hydroxy-N-(1-methylhexyl)butanamide Hydrochloride], the IC50 was 1.7 µM. Regarding `N[C@H](CC1CCCCC1)C(O)C(=O)Nc1ccccc1OC(F)(F)F` (stereo partly drawn) [Example 169, (2RS,3R)-3-amino-4-cyclohexyl-2-hydroxy-N-(2-(trifluoromethoxy)phenyl)butanamide hydrochlordie], the IC50 stood at 3.3 µM. On to `Cc1ccc(S(=O)(=O)NCCCCNC(=O)C(O)[C@H](N)CC2CCCCC2)cc1` (stereo partly drawn) [Example 80, (2RS,3R)-3-amino-2-hydroxy-4-cyclohexyl)butanoyl-(4-(4-toluenesulfonyl)aminobutyl)amide hydrochloride], for which the IC50 was determined as 1.3 µM. Turning to `CC(C)(C)C1CCC(NC(=O)C(O)[C@H](N)CC2CCCCC2)CC1` (mixture of isomers) [Example 111, (2RS,3R)-3-Amino-N-(4-(tert-butyl)cyclohexyl)-4-cyclohexyl-2-hydroxybutanamide Hydrochloride], the IC50 worked out at 8.2 µM. Turning to `N[C@H](CC1CCCCC1)C(O)C(=O)NCCc1ccc(OCc2ccccc2)c(OCc2ccccc2)c1` (mixture of isomers) [Example 167, (2RS,3R)-3-amino-N-(3,4-bis(benzyloxy)phenethyl)-4-cyclohexyl-2-hydroxybutanamide hydrochloride], the IC50 was 3.3 µM. Turning to `N[C@H](CC1CCCCC1)C(O)C(=O)NCCC(c1ccccc1)c1ccccc1` (mixture of isomers) [Example 216, (2RS,3R)-3-amino-4-cyclohexyl-N-(3,3-diphenylpropyl)-2-hydroxybutanamide Hydrochloride], the IC50 amounted to 1.8 µM.

For the compound `C[C@@H](COC(=O)c1ccccc1)NC(=O)C(O)[C@H](N)CC1CCCCC1` (stereo partly drawn) [Example 49, (2RS, 3R,2'S)-N-((2-benzoyloxypropyl)-3-amino-2-hydroxy-4-cyclohexyl)butanamide hydrochloride], the IC50 is 2.2 µM. On the same count and under the same terms, then `CC(C)COCCCNC(=O)C(O)[C@H](N)CC1CCCCC1` (mixture of isomers) [Example 214, (2RS,3R)-3-amino-4-cyclohexyl-2-hydroxy-N-(3-isobutoxypropyl)butanamide Hydrochloride], with 2.8 µM; and `COc1ccc(NC(C)=O)cc1NC(=O)C(O)[C@H](N)CC1CCCCC1` (mixture of isomers) [Example 178, (2RS,3R)-N-(5-(acetylamino)-2-methoxyphenyl)-3-amino-4-cyclohexyl-2-hydroxybutanamide hydrochloride], with 11 µM; and `Cc1ccc(CNC(=O)C(O)[C@H](N)CC2CCCCC2)cc1` (mixture of isomers) [Example 187, (2RS,3R)-3-amino-4-cyclohexyl-2-hydroxy-N-(4-methylbenzyl)butanamide hydrochloride], with 1.2 µM. For `N[C@H](CC1CCCCC1)C(O)C(=O)NCCCn1ccnc1` (stereo partly drawn) [Example 74, ((2RS,3R)-3-amino-2-hydroxy-4-cyclohexyl)butanoyl-(3-imidazolylpropyl)amidedihydrochloride], the IC50 is 30 µM. As to `CCOc1ccc(OCC)c(NC(=O)C(O)[C@H](N)CC2CCCCC2)c1` (mixture of isomers) [Example 181, (2RS,3R)-3-amino-4-cyclohexyl-N-(2,5-diethoxyphenyl)-2-hydroxybutanamide hydrochloride], the IC50 stood at 9.8 µM.

Take `C[C@@H](c1cccc2ccccc12)N(C)C(=O)C(O)[C@H](N)CC1CCCCC1` (mixture of isomers) [Example 219, (2RS,3R)-3-amino-4-cyclohexyl-2-hydroxy-N-methyl-N-((1S)-1-(1-naphthyl)ethyl)butanamide Hydrochloride]: the IC50 amounted to 1.8 µM. In the case of `Cc1ncc([N+](=O)[O-])n1CCNC(=O)C(O)[C@H](N)CC1CCCCC1` (stereo partly drawn) [Example 56, (2RS,3R) N-(2-methyl-5-nitroimidazole-ethyl) 3-amino-2-hydroxy-4-cyclohexyl)butanamide dihydrochloride], the IC50 amounted to 12 µM.

The assay is the same for the next values; noted with them: recombinant MetAP2 4 μg/mL, pH 7.4, Met-Ala-Ser substrate, 20 minutes.
On to `CCOC(=O)CCCNC(=O)C(O)[C@H](N)CC1CCCCC1` (mixture of isomers) [Example 25, (2RS,3R)-N-(3-(carboethoxy)propyl)-3-amino-2-hydroxy-4-cyclohexyl-butanamide hydrochloride], for which the IC50 came out at 1.9 µM.
